This note sets out measurements from ChEMBL document CHEMBL1152864, “Synthesis and anti-inflammatory activity of newer quinazolin-4-one derivatives” (Eur J Med Chem, 2009).

For data set [1], the system named is Rattus norvegicus. Put plainly: Antiinflammatory activity in Charles-Foster albino rat assessed as inhibition of carrageenan-induced hind paw edema at 50 mg/kg, po relative to control. The format is functional. For orientation: The carrageenan paw model is a standard test of acute inflammation.
Data set [2] can be described thus: Acute toxicity in po dosed albino mouse. Type of data set: organism-based. As to conditions: in vivo, read-out: ALD50.
For data set [3], the system named is Rattus norvegicus. Put plainly: Antiinflammatory activity in Charles-Foster albino rat assessed as inhibition of carrageenan-induced hind paw edema at 25 mg/kg, po relative to control. Type of data set: functional.
Data set [4] has as its system Rattus norvegicus. As to the kind of experiment: Antiinflammatory activity in Charles-Foster albino rat assessed as inhibition of carrageenan-induced hind paw edema at 100 mg/kg, po relative to control. Type of data set: functional.

Each structure is given as a SMILES string.

With `COc1ccc(C2SCC(=O)N2n2c(CSc3nnc(-c4ccncc4)o3)nc3ccc(Br)cc3c2=O)cc1` (stereo not drawn), in the data set on Rattus norvegicus [1], the inhibition in vivo at 50 mg/kg was found to be 35.3%. Moreover, the LD50 in data set [2] was above 1000 mg/kg.
On the same counts, the results for `O=C1CSC(c2ccc(O)cc2)N1n1c(CSc2nnc(-c3ccncc3)o2)nc2ccc(Br)cc2c1=O` (stereo not drawn) are 32.7% and above 1000 mg/kg.
On the same counts, the results for `O=C1C(Cl)C(c2ccc(Cl)cc2)N1n1c(CSc2nnc(-c3ccncc3)o2)nc2ccc(Br)cc2c1=O` (stereo not drawn) are 29.9% and above 1000 mg/kg.
On the same counts, the results for `COc1ccc(C2C(Cl)C(=O)N2n2c(CSc3nnc(-c4ccncc4)o3)nc3ccc(Br)cc3c2=O)cc1` (stereo not drawn) are 28.6% and above 1000 mg/kg.
For `O=c1c2ccccc2nc(CSc2nnc(-c3ccncc3)o2)n1/N=C/c1ccccc1`, the inhibition in vivo at 50 mg/kg with Rattus norvegicus [1] was found to be 16.3%. In addition, the LD50 in data set [2] was above 1000 mg/kg.
On the same counts, the results for `O=c1c2ccccc2nc(CSc2nnc(-c3ccncc3)o2)n1/N=C/c1ccc(Cl)cc1` are 23.7% and above 1000 mg/kg.
As to `O=C1C(Cl)C(c2ccc(O)cc2)N1n1c(CSc2nnc(-c3ccncc3)o2)nc2ccccc2c1=O` (stereo not drawn), the inhibition in vivo at 50 mg/kg in the data set on Rattus norvegicus [1] came out at 25.7%. Further, in data set [2], the LD50 was above 1000 mg/kg.
In the case of `O=C1CSC(c2ccc(O)cc2)N1n1c(CSc2nnc(-c3ccncc3)o2)nc2ccccc2c1=O` (stereo not drawn), in the data set with Rattus norvegicus [1], the inhibition in vivo at 50 mg/kg was determined as 31.7%. In data set [2], the LD50 is above 1000 mg/kg.
On the same counts, the results for `COc1ccc(/C=N/n2c(CSc3nnc(-c4ccncc4)o3)nc3ccc(Br)cc3c2=O)cc1` are 24.4% and above 1000 mg/kg.
On the same counts, the results for `O=C1CSC(c2ccccc2)N1n1c(CSc2nnc(-c3ccncc3)o2)nc2ccc(Br)cc2c1=O` (stereo not drawn) are 31.3% and above 1000 mg/kg.
In the case of `O=C1CSC(c2ccc(Cl)cc2)N1n1c(CSc2nnc(-c3ccncc3)o2)nc2ccc(Br)cc2c1=O` (stereo not drawn), the inhibition in vivo at 50 mg/kg in the data set with Rattus norvegicus [1] was 25.2%. In the data set with Rattus norvegicus [3], the inhibition in vivo at 25 mg/kg turned out to be 25.2%. Moreover, the inhibition in vivo at 100 mg/kg in the data set on Rattus norvegicus [4] was found to be 66.9%. Further, the LD50 in data set [2] is above 1000 mg/kg.
Regarding `O=C1CSC(c2ccccc2)N1n1c(CSc2nnc(-c3ccncc3)o2)nc2ccccc2c1=O` (stereo not drawn), in the data set with Rattus norvegicus [1], the inhibition in vivo at 50 mg/kg was found to be 30.1%. Besides, the LD50 in data set [2] is above 1000 mg/kg.
On the same counts, the results for `COc1ccc(C2SCC(=O)N2n2c(CSc3nnc(-c4ccncc4)o3)nc3ccccc3c2=O)cc1` (stereo not drawn) are 33.8% and above 1000 mg/kg.
On the same counts, the results for `COc1ccc(/C=N/n2c(CSc3nnc(-c4ccncc4)o3)nc3ccccc3c2=O)cc1` are 20% and above 1000 mg/kg.
Turning to `O=c1c2cc(Br)ccc2nc(CSc2nnc(-c3ccncc3)o2)n1/N=C/c1ccc(O)cc1`, the inhibition in vivo at 50 mg/kg with Rattus norvegicus [1] worked out at 22.3%. For the same compound, the LD50 in data set [2] is above 1000 mg/kg.
On the same counts, the results for `O=C1C(Cl)C(c2ccccc2)N1n1c(CSc2nnc(-c3ccncc3)o2)nc2ccccc2c1=O` (stereo not drawn) are 25.1% and above 1000 mg/kg.
On the same counts, the results for `O=C1C(Cl)C(c2ccc(Cl)cc2)N1n1c(CSc2nnc(-c3ccncc3)o2)nc2ccccc2c1=O` (stereo not drawn) are 27.9% and above 1000 mg/kg.
As for `O=c1c2cc(Br)ccc2nc(CSc2nnc(-c3ccncc3)o2)n1/N=C/c1ccc(Cl)cc1`, in the data set on Rattus norvegicus [1], the inhibition in vivo at 50 mg/kg is 26.4%. Besides, the LD50 in data set [2] was above 1000 mg/kg.
On to `O=C1C(Cl)C(c2ccc(O)cc2)N1n1c(CSc2nnc(-c3ccncc3)o2)nc2ccc(Br)cc2c1=O` (stereo not drawn), for which, in the data set on Rattus norvegicus [1], the inhibition in vivo at 50 mg/kg is 27.4%. Also, the LD50 in data set [2] is above 1000 mg/kg.
On the same counts, the results for `O=c1c2ccccc2nc(CSc2nnc(-c3ccncc3)o2)n1/N=C/c1ccc(O)cc1` are 18.2% and above 1000 mg/kg.
On the same counts, the results for `O=C1CSC(c2ccc(Cl)cc2)N1n1c(CSc2nnc(-c3ccncc3)o2)nc2ccccc2c1=O` (stereo not drawn) are 34.1% and above 1000 mg/kg.
On the same counts, the results for `O=c1c2cc(Br)ccc2nc(CSc2nnc(-c3ccncc3)o2)n1/N=C/c1ccccc1` are 19.4% and above 1000 mg/kg.
`O=C1C(Cl)C(c2ccccc2)N1n1c(CSc2nnc(-c3ccncc3)o2)nc2ccc(Br)cc2c1=O` (stereo not drawn): in the data set with Rattus norvegicus [1], the inhibition in vivo at 50 mg/kg was found to be 26.3%. The LD50 in data set [2] is above 1000 mg/kg.
On the same counts, the results for `COc1ccc(C2C(Cl)C(=O)N2n2c(CSc3nnc(-c4ccncc4)o3)nc3ccccc3c2=O)cc1` (stereo not drawn) are 26.1% and above 1000 mg/kg.
On to `CCCCC1C(=O)N(c2ccccc2)N(c2ccccc2)C1=O` [PHENYLBUTAZONE], for which the inhibition in vivo at 50 mg/kg with Rattus norvegicus [1] stood at 36.8%. For the same compound, the inhibition in vivo at 25 mg/kg in the data set with Rattus norvegicus [3] stood at 25.4%. Also, the inhibition in vivo at 100 mg/kg in the data set with Rattus norvegicus [4] is 66.4%.

As a reminder, the inhibition in vivo is the share of the control response that was lost under treatment.
